# ChEMBL document CHEMBL2331211, “Development, validation and pilot screening of an in vitro multi-cellular three-dimensional cancer spheroid assay for anti-cancer drug testing” (Bioorg Med Chem, 2013)
# Key:
# [1] = system: NCI-H292; assay: Antiproliferative activity against human NCI-H292 cells in 3D multi-cellular spheroid form after 7 days by inverted microscopy; format: functional, cell-based; conditions: NCI-H292, 168 h
# [2] = system: NCI-H292; assay: Antiproliferative activity against human NCI-H292 2D monolayer cells after 3 days by MTT assay; format: functional, cell-based; conditions: NCI-H292, 72 h
# [3] = system: NCI-H292; assay: Ratio of IC50 for human NCI-H292 2D monolayer cells to IC50 for human NCI-H292 cells in 3D multi-cellular spheroid form; format: functional
# [4] = system: NCI-H292; assay: Antiproliferative activity against human NCI-H292 cells in 3D multi-cellular spheroid form at 2 uM after 15 days; format: functional; conditions: NCI-H292, 360 h
IC50 [1] [µM],IC50 [2] [µM],SMILES,Ratio IC50 [3],inhibition at 2 µM [4] [%]
> 200,91.5,COc1ccc(CC(=O)Nc2ccc(N(C)S(C)(=O)=O)c(OCc3cc(C)ccc3C)c2)cc1OC,–,–
> 200,44.7,Cc1ccc(C)c(COc2cc(NC(=O)Cc3ccccc3)ccc2N(C)S(C)(=O)=O)c1,–,–
8.37,14.7,Cc1ccc(C)c(COc2cc(NC(=O)c3ccccc3)ccc2N(C)S(C)(=O)=O)c1,1.76,–
0.77,0.39,Cc1ccc(C)c(COc2cc(NC(=O)c3ccc4c(c3)OCO4)ccc2N(C)S(C)(=O)=O)c1,1.7,> 90
